Test results as given in patent US20080287514A1, “Topical compositions containing metronidazole” (priority 2007, published 2008).
Blank lines part the entries; values can stand above or below the compound they belong to.

Columns and labels:
[1] = at 25 °C; cited from earlier work
[2] = Physical stability test (crystal formation or precipitation after 24 hours at room temperature and 7 days at about 4 °C); assay type: physicochemical; conditions: for Results from stability test: aqueous solution, 7 days at about 4 °C
Procedure: The solubility enhancing effect of the combination of niacinamide and hydroxyalkyl urea in increasing the solubility of metronidazole in the aqueous compositions is evaluated by physical stability of the prepared compositions.
Therefore, the compositions in accordance with the present invention are subject to a physical stability test. The protocol for the stability test is as follows: metronidazole and the solubility enhancing agents are combined with water either at room temperature or elevated temperature while stirring until dissolved. The solutions are permitted to cool to room temperature. Customary auxiliaries and additives may be added to the aqueous solutions containing solubilized metronidazole and solubility enhancing agents. The solutions may be gelled by using the suitable gelling agents. The compositions both in gel or solution form are then packaged in clear glass vials and sealed. The vials are kept at room temperature for 24 hours and monitored for crystal formation or precipitation. After 24 hours, the vials are placed in a refrigerator maintained at a temperature of about 4° C. for 7 days. After 7 days, the vials are removed from the refrigerator. Evidence of crystal formation or precipitation in the compositions is examined.
(§1) Each formulation was prepared by combining niacinamide and metronidazole in water (q.s 100%). The mixture was kept at a temperature of about 45° C. while stirring until dissolved. The solutions were permitted to cool to room temperature, packaged and sealed in glass vials. The stability tests described in Example 1 were performed and the test results were recorded.
as §1, with “N-2-hydroxyethyl urea” for “niacinamide”, “(q.s.” for “(q.s”
as §1, with “N-2-hydroxyethyl urea, niacinamide,” for “niacinamide”, “(q.s.” for “(q.s”, “100%). N-2-hydroxyethyl urea is available from a number of commercial sources, for example, Aldrich Chemical Company (Milwaukee, Wis.).” for “100%).”, “kept either at room temperature or” for “kept”

- concentration of niacinamide needed to obtain a stable aqueous solution of 1.0% metronidazole ([2]; concentration of N-2-hydroxyethyl urea is 1.0%): about 4.0%
- N-2-hydroxyethyl urea functionally equivalent to 1% niacinamide in inducing the solubility enhancing effect ([2]; from Examples 2 and 3, 1.0% metronidazole): about 3.2%
- concentration of niacinamide required to obtain a stable aqueous solution of 1.0% metronidazole ([2]; niacinamide as the only solubility enhancing agent): about 5%
Structure (SMILES): NC(=O)c1cccnc1 [niacinamide]
- water solubility limit [1]: about 50 % by weight

- Results from stability test ([2]; 1.0% metronidazole, 1.0% N-2-hydroxyethyl urea, 3.0% niacinamide): Crystals
- Results from stability test ([2]; 1.0% metronidazole, 1.0% N-2-hydroxyethyl urea, 4.0% niacinamide): Clear
- Results from stability test ([2]; 1.0% metronidazole, 2% niacinamide): Crystals formed
- Results from stability test ([2]; 1.0% metronidazole, 3.0% N-2-hydroxyethyl urea, 3.0% niacinamide): Clear
- Results from stability test ([2]; 1.0% metronidazole, 3% niacinamide): Crystals formed
- Results from stability test ([2]; 1.0% metronidazole, 4.0% N-2-hydroxyethyl urea, 1.0% niacinamide): Crystals
- Results from stability test ([2]; 1.0% metronidazole, 4% niacinamide): Crystals formed
- Results from stability test ([2]; 1.0% metronidazole, 5.0% N-2-hydroxyethyl urea, 1.0% niacinamide): Clear
- Results from stability test ([2]; 1.0% metronidazole, 5.0% N-2-hydroxyethyl urea, 1.0% niacinamide, listed as metronidazole): stable
- Results from stability test ([2]; 1.0% metronidazole, 5.0% N-2-hydroxyethyl urea, 2.0% niacinamide): Clear
- Results from stability test ([2]; 1.0% metronidazole, 5% niacinamide): Clear
- Results from stability test ([2]; 1.0% metronidazole, 13% N-2-hydroxyethyl urea): Crystals formed
- Results from stability test ([2]; 1.0% metronidazole, 14% N-2-hydroxyethyl urea): Crystals formed
- Results from stability test ([2]; 1.0% metronidazole, 15% N-2-hydroxyethyl urea): Crystals formed
- Results from stability test ([2]; 1.0% metronidazole, 16% N-2-hydroxyethyl urea): Clear
- Results from stability test ([2]; 1.2% metronidazole, 10.0% N-2-hydroxyethyl urea, 2.0% niacinamide): Clear
Structure (SMILES): Cc1ncc([N+](=O)[O-])n1CCO [Metronidazole, 1-(2-hydroxyethyl)-2-methyl-5-nitroimidazole]

- concentration of N-2-hydroxyethyl urea required to obtain a stable aqueous solution of 1.0% metronidazole ([2]; N-2-hydroxyethyl urea as the only solubility enhancing agent): about 16%
- concentration of N-2-hydroxyethyl urea needed to obtain a stable aqueous solution of 1.0% metronidazole ([2]; concentration of niacinamide is 1.0%): ≥ 5.0%
Structure (SMILES): NC(=O)NCCO [N-2-hydroxyethyl urea]
